Measurements reported in patent US7612201B2, “Pyrazole compounds” (Vernalis (Cambridge) Limited, priority 2002, dated 2009).
pIC50: −log10 of the molar value.

biological target: T1, yeast HSP90 (Saccharomyces cerevisiae, UniProt P02829); experiment: Malachite green ATPase assay; format: biochemical; settings: activity range
T1 construct: made in house; host or cells: E. coli
Excerpt: The intrinsic ATPase activity of HSP90 may be measured using yeast HSP90 as a model system. The assay, based on the use of malachite green for the measurement of inorganic phosphate, was used to test the HSP90 inhibitory activity of the compounds of the Examples herein.
Malachite Green ATPase Assay
Chemicals are of the highest purity commercially available and all aqueous solutions are made up in AR water. Because of the need to minimise contamination with inorganic phosphate, precautions should be taken with solutions and apparatus used in the assays. Glassware and pH meters are rinsed with double distilled or deionised water before use and, wherever possible, plastic ware should be used. Gloves are worn for all procedures. • (1) Greiner 384-well (Greiner 781101) or Costar 384-well flat-bottomed polystyrene multiwell plates (VWR). • (2) Assay buffer of (a) 100 mM Tris-HCl, pH 7.4, (b) 150 mM KCl, (c) 6 mM MgCl2. Stored at room temperature. • (3) 0.0812% (w/v) malachite green (M 9636, Sigma Aldrich Ltd., Poole, UK). Stored at room temperature. • (4) 2.32% (w/v) polyvinyl alcohol USP (P 1097, Sigma Aldrich Ltd, Poole, UK) in boiling water (see Comment 1), allowed to cool, and stored at room temperature. • (5) 5.72% (w/v) ammonium molybdate in 6 M hydrochloric acid. Stored at room temperature. • (6) 34% (w/v) sodium citrate. Stored at room temperature. • (7) 100 mM ATP, disodium salt, special quality (47699, Sigma Aldrich). Stored at −20° C. • (8) E. coli expressed yeast HSP90 protein, purified >95% (see, e.g., Panaretou et al., 1998) and stored in 50 uL aliquots at −80° C.
Method • 1. Dilute test compounds to 500 μM in AR water (DMSO concentration will be 2.5%). Transfer 2.5 μl of these compounds directly from the daughter plate to the assay plate, giving a final assay concentration of 100 μM. To obtain 12 point IC50 values, perform serial dilutions 1:2 to produce a range of assay concentrations from 100 μM to 97.6 nM (2.5% DMSO), and transfer 2.5 μl of each concentration into the assay plate. Column 1 in the assay plate contains no compound, as a negative control. An additional row with no compound is also used as a background. • 2. Prepare ATP by diluting 100 mM stock to 925 μM with assay buffer, and aliquot 5 μl of diluted ATP to each well including controls (final assay concentration 370 μM). • 3. Add 5 μl of buffer to background row. • 4. Dilute enzyme preparation to 1.05 μM with assay buffer, and aliquot 5 μl into each compound well and to the negative control column. • 5. Collect the reagents to the bottom of the well, cover plate with plate seal and incubate overnight at 37 degC. • 6. First thing in the morning prepare the Malachite Green Reagent. Add 2 parts of Malachite Green Solution, 1 part of Polyvinyl Alcohol Solution, 1 part of Ammonium Molybdate Solution, and 2 parts of AR water. • 7. Invert to mix, and leave for approximately 1 hour until the colour turns from brown to golden yellow. • 8. Add 40 μl of Malachite Green Reagent to each well, allow 5 mins for colour to develop. • 9. Add 5 μl of Sodium Citrate Reagent to each well (see comment 2) • 10. Re-cover with plate seal and shake on plate shaker for at least 15 mins. • 11. Measure Absorbance at 620 nm using a suitable plate reader (e.g. Victor, Perkin Elmer Life Sciences, Milton Keynes, UK).
Comments • (1) The polyvinyl alcohol dissolves in boiling water with difficulty and stirring for 2-3 h is required. • (2) The time interval between addition of the malachite green reagent and the sodium citrate should be kept as short as possible in order to reduce the non-enzymatic hydrolysis of ATP. Once the sodium citrate is added, the colour is stable for up to 4 h at room temperature. • (3) Compounds can be added to the assay plates using a Biomek FX Robot (Beckman Coulter).

T1 sequence (P02829 whole entry): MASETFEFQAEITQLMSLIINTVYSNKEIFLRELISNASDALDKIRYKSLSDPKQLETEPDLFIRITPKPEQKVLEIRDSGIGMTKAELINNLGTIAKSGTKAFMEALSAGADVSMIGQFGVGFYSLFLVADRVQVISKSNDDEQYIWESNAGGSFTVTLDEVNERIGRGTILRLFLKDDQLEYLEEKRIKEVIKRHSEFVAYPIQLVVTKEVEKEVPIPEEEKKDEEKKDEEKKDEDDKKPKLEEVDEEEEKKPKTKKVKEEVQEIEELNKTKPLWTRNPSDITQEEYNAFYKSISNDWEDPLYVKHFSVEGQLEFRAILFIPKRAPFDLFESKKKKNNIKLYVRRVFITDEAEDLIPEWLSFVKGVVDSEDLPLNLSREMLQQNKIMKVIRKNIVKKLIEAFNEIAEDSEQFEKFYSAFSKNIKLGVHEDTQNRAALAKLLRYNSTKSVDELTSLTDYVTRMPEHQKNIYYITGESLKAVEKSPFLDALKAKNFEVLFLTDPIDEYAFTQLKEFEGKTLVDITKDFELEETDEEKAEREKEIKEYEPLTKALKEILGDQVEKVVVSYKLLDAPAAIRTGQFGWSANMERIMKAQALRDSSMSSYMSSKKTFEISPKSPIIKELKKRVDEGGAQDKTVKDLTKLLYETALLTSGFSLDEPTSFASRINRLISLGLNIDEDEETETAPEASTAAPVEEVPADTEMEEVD

Structure (SMILES) | pIC50
CC(C)(C)OC(=O)N1CCN(c2c[nH]nc2-c2cc(Cl)c(O)cc2O)CC1 [Example 1, 4-[3-(5-Chloro-2,4-dihydroxy-phenyl)-1H-pyrazol-4-yl]-piperazine-1-carboxylic acid tert-butyl ester] | < 4.30
Oc1cc(O)c(-c2n[nH]cc2N2CCOCC2)cc1Cl [Example 3] | < 4.30
CN1CCN(c2c[nH]nc2-c2cc(Cl)c(O)cc2O)CC1 [Example 4] | > 4.30
Oc1cc(O)c(-c2n[nH]cc2N2CCN(Cc3ccco3)CC2)cc1Cl [Example 5, 4-Chloro-6-[4-(4-furan-2-ylmethyl-piperazin-1-yl)-1H-pyrazol-3-yl]-benzene-1,3-diol] | < 4.30
CCN1CCN(c2c[nH]nc2-c2cc(Cl)c(O)cc2O)CC1 [Example 6] | > 4.30
NNC(=O)CN1CCN(c2c[nH]nc2-c2cc(Cl)c(O)cc2O)CC1 [Example 8, {4-[3-(5-Chloro-2,4-dihydroxy-phenyl)-1H-pyrazol-4-yl]-piperazin-1-yl}-acetic acid hydrazide] | < 4.30
OCCN1CCN(c2c[nH]nc2-c2cc(Cl)c(O)cc2O)CC1 [Example 9, 4-Chloro-6-{4-[4-(2-hydroxy-ethyl)-piperazin-1-yl]-1H-pyrazol-3-yl}-benzene-1,3-diol] | < 4.30
N#CCN1CCN(c2c[nH]nc2-c2cc(Cl)c(O)cc2O)CC1 [Example 10] | < 4.30
N#CCOc1cc(O)c(-c2n[nH]cc2N2CCN(CC#N)CC2)cc1Cl [Example 11] | < 4.30
N#CCCCN1CCN(c2c[nH]nc2-c2cc(Cl)c(O)cc2O)CC1 [Example 13] | > 4.30
COCCN1CCN(c2c[nH]nc2-c2cc(Cl)c(O)cc2O)CC1 [Example 14] | > 4.30
COC(=O)c1ccc(CN2CCN(c3c[nH]nc3-c3cc(Cl)c(O)cc3O)CC2)o1 [Example 15] | > 4.30
COC(=O)c1cccc(CN2CCN(c3c[nH]nc3-c3cc(Cl)c(O)cc3O)CC2)c1 [Example 16] | > 4.30
Oc1cc(O)c(-c2n[nH]cc2N2CCN(Cc3ncon3)CC2)cc1Cl [Example 17] | > 4.30
Oc1cc(O)c(-c2n[nH]cc2N2CCN(Cc3ccc(Cl)cc3)CC2)cc1Cl [Example 18] | > 4.30
NC(=O)CN1CCN(c2c[nH]nc2-c2cc(Cl)c(O)cc2O)CC1 [Example 20] | > 4.30
COC(=O)c1ccc(CN2CCN(c3c[nH]nc3-c3cc(Cl)c(O)cc3O)CC2)cc1 [Example 21] | > 4.30
N#Cc1ccc(CN2CCN(c3c[nH]nc3-c3cc(Cl)c(O)cc3O)CC2)cc1 [Example 22] | > 4.30
NC(=O)c1cccc(CN2CCN(c3c[nH]nc3-c3cc(Cl)c(O)cc3O)CC2)c1 [Example 25] | > 4.30

Structure (SMILES) | pIC50
COc1ccc(CN2CCN(c3c[nH]nc3-c3cc(Cl)c(O)cc3O)CC2)cc1 [Example 26] | > 4.30
C#CC[N+]1(CC#C)CCN(c2c[nH]nc2-c2cc(Cl)c(O)cc2O)CC1 [Example 27] | > 4.30
O=C(O)c1ccc(CN2CCN(c3c[nH]nc3-c3cc(Cl)c(O)cc3O)CC2)o1 [Example 28] | > 4.30
OCCCN1CCN(c2c[nH]nc2-c2cc(Cl)c(O)cc2O)CC1 [Example 30] | > 4.30
Oc1cc(O)c(-c2n[nH]cc2N2CCN(Cc3ccccn3)CC2)cc1Cl [Example 31] | > 4.30
COC(=O)c1ccc(C(=O)N2CCN(c3c[nH]nc3-c3cc(Cl)c(O)cc3O)CC2)cc1 [Example 32] | < 4.30
Cn1c(CN2CCN(c3c[nH]nc3-c3cc(Cl)c(O)cc3O)CC2)nc2ccccc21 [Example 33] | < 4.30
O=C(O)c1ccc(CN2CCN(c3c[nH]nc3-c3cc(Cl)c(O)cc3O)CC2)cc1 [Example 35] | > 4.30
NC(=O)c1ccc(CN2CCN(c3c[nH]nc3-c3cc(Cl)c(O)cc3O)CC2)cc1 [Example 36] | > 4.30
Cc1cc(NC(=O)c2ccc(CN3CCN(c4c[nH]nc4-c4cc(Cl)c(O)cc4O)CC3)cc2)no1 [Example 37] | > 4.30
Oc1cc(O)c(-c2n[nH]cc2N2CCN(Cc3ccc(-c4cnns4)cc3)CC2)cc1Cl [Example 38] | > 4.30
Oc1cc(O)c(-c2n[nH]cc2N2CCN(Cc3ccc(-n4cccn4)cc3)CC2)cc1Cl [Example 39] | > 4.30
O=C(CN1CCN(c2c[nH]nc2-c2cc(Cl)c(O)cc2O)CC1)N1CCOCC1 [Example 40] | > 4.30
CC(C)(C)OC(=O)CN1CCN(c2c[nH]nc2-c2cc(Cl)c(O)cc2O)CC1 [Example 41] | < 4.30
CCNC(=O)c1[nH]nc(-c2cc(Cl)c(O)cc2O)c1N1CCNCC1 [Example 51, 5-(5-Chloro-2,4-dihydroxy-phenyl)-4-piperazin-1-yl-2H-pyrazole-3-carboxylic acid ethylamide] | > 4.30
Oc1cc(F)ccc1-c1n[nH]cc1N1CCNCC1 [Example 52, 3-(4-Fluoro-2-hydroxyphenyl)-4-(piperazin-1-yl)-1H-pyrazole] | < 4.30
Oc1cc(O)c(-c2n[nH]cc2N2CCNCC2)cc1CCc1ccc2c(c1)OCO2 [Example 65] | > 4.30
Oc1cc(O)c(-c2n[nH]cc2N2CCNCC2)cc1CCc1cccc2c1OCO2 [Example 66] | > 4.30
COc1ccc(OC)c(CCc2cc(-c3n[nH]cc3N3CCNCC3)c(O)cc2O)c1 [Example 67] | > 4.30

The next lines start with the values.

pIC50 | Structure (SMILES)
> 4.30 | Oc1cc(O)c(-c2n[nH]cc2N2CCN(Cc3cccnc3)CC2)cc1Cl [Example 7]
> 4.30 | N#Cc1cccc(CN2CCN(c3c[nH]nc3-c3cc(Cl)c(O)cc3O)CC2)c1 [Example 19]
> 4.30 | N#Cc1ccccc1CN1CCN(c2c[nH]nc2-c2cc(Cl)c(O)cc2O)CC1 [Example 23]
> 4.30 | O=C(O)c1cccc(CN2CCN(c3c[nH]nc3-c3cc(Cl)c(O)cc3O)CC2)c1 [Example 29]
> 4.30 | Oc1cc(O)c(-c2n[nH]cc2N2CCN(CCc3ccccc3)CC2)cc1Cl [Example 34]
> 4.30 | CC(c1ccccc1)N1CCN(c2c[nH]nc2-c2cc(Cl)c(O)cc2O)CC1 (centres unmarked) [Example 43]
< 4.30 | Oc1cc(O)c(-c2n[nH]cc2N2CCNCC2)cc1Br [Example 55]
< 4.30 | Cn1ncc(N2CCNCC2)c1-c1cc(Br)c(O)cc1O [Example 56]
< 4.30 | Cn1cc(N2CCNCC2)c(-c2cc(Br)c(O)cc2O)n1 [Example 57]
< 4.30 | CCn1cc(N2CCNCC2)c(-c2cc(Br)c(O)cc2O)n1 [Example 59]
< 4.30 | CC(C)n1ncc(N2CCNCC2)c1-c1cc(Br)c(O)cc1O [Example 60]
< 4.30 | CC(C)n1cc(N2CCNCC2)c(-c2cc(Br)c(O)cc2O)n1 [Example 61]
< 4.30 | Oc1cc(O)c(-c2c(N3CCNCC3)cnn2Cc2ccccc2)cc1Br [Example 62]
< 4.30 | Oc1cc(O)c(-c2nn(Cc3ccccc3)cc2N2CCNCC2)cc1Br [Example 63]
< 4.30 | CCOC(=O)Cn1cc(N2CCNCC2)c(-c2cc(Br)c(O)cc2O)n1 [Example 64]
> 4.30 | Oc1cc(O)c(-c2n[nH]cc2N2CCNCC2)cc1CCc1ccccc1F [Example 68]
> 4.30 | Oc1cc(O)c(-c2n[nH]cc2N2CCNCC2)cc1CCc1cccc(F)c1 [Example 69]
> 4.30 | Oc1cc(O)c(-c2n[nH]cc2N2CCNCC2)cc1CCc1ccc(F)cc1 [Example 70]
> 4.30 | Cc1cccc(CCc2cc(-c3n[nH]cc3N3CCNCC3)c(O)cc2O)c1 [Example 71]
> 4.30 | Cc1ccc(CCc2cc(-c3n[nH]cc3N3CCNCC3)c(O)cc2O)cc1 [Example 72]
> 4.30 | Cc1ccc(CCc2cc(-c3n[nH]cc3N3CCNCC3)c(O)cc2O)c(C)c1 [Example 73]
